Results on two molecules are retold here after patent US20030113797A1, “Method for generating, screening and dereplicating natural product libraries for the discovery of therapeutic agents” (UNIGEN PHARMACEUTICALS, INC., priority 2001, published 2003).

The subject of experiment [1] is COX-1 and COX-2 recombinant enzymes. The following applies: major compound of fraction D3, Camellia sinensis aqueous extract; cited from earlier work.
The test system of experiment [2] is B16 F1 mouse melanoma cells. Put plainly: Inhibition of melanogenesis (alpha-MSH stimulated melanin formation). It is filed as cell-based. The following applies: identified by dereplication of fractions D2 to D7. How it is done:
Inhibition of melanogenesis was determined by a modified method of Siegrist and Eberle (x). B16 F1 mouse melanoma cells (2.0×10^4 cells/mL) were subcultured in GibcoBRL Modified Eagle Medium (10% FBS, 1% Gibco non-essential amino acids, 1% PSG, 1.5% Gibco vitamin solution). After 3 days incubation (37° C., 5% CO2) cells were seeded (2500 cells/well, 200 μL) in 96 well sterile culture plates (Costar) and incubated overnight (37° C., 5% CO2). The next day, cell culture medium was replaced with 100 μL fresh medium. Extract samples were dissolved in DMSO at a concentration of 30 mg/mL and diluted 1:1000 in cell culture medium on separate, sterile, 96 well plates. […] Sample wells containing no α-MSH were used to determine sample absorbance at 450 nm unrelated to melanin pigment formation as control. […] The degree of melanin formation was determined at 450 nm in a 96 well plate reader. Percent inhibition of samples was determined by the formula: […]
Ac MSH+: Absorbance at 450 nm of cells containing no sample, with MSH
Ac MSH−: Absorbance at 450 nm of cells containing no sample, without MSH
As MSH+: Absorbance at 450 nm of cells containing sample, with MSH
As MSH−: Absorbance at 450 nm of cells containing sample, without MSH

Take `O=C(O[C@@H]1Cc2c(O)cc(O)cc2O[C@@H]1c1cc(O)c(O)c(O)c1)c1cc(O)c(O)c(O)c1` [Epigallocatechin Gallate (EGCG), Epigallocatechin Gallate]: the “COX inhibitor (known activity)” value in experiment [1] was “well known COX inhibitor”.
With `O=C(OC1C(CO)OC(O)C2OC(=O)c3cc(O)c(O)c(O)c3-c3c(cc(O)c(O)c3O)C(=O)OC21)c1cc(O)c(O)c(O)c1` (centres unmarked) [Pterocaryanin B], the “Inhibition of melanin synthesis” value in experiment [2] is recorded as “inhibition of melanin synthesis”.
